Results reported in article PMC6095608 (PLoS ONE, 2018).

What was measured:
MDCK-Co cells = assay: Transcellular transport assay across control MDCK-Co monolayers; format: cell-based, canine; details: 10 μM efavirenz, 2 nM MPP+, 2 h
Procedure: Transport experiments employing polarized monolayers of MDCK-OCT1, MDCK-OCT2, or MDCK-MATE1 cell lines as well as doubly transfected MDCK-OCT1-MATE1 or MDCK-OCT2-MATE1 lines and the non-transfected parental control MDCK-Co cells grown on Transwell 3402 cell culture inserts (3.0 μm pore size, 24 mm diameter; Costar, Corning, NY) were performed as described previously. The number of cells per well was 0.5 x 10^6 in all experiments, and the cells were incubated for 3 days to confluence in standard cultivation medium MEM (Gibco) + 10% FBS. After 3 days’ cultivation, medium was removed from both sides and the cells of the monolayer were washed using pre-warmed PBS. Experiments were initiated by adding HBSS buffer containing 10 mM HEPES (pH 7.4) or 10 mM MES (pH 6.0) with or without [^3H]-lamivudine (10 nM) or [^3H]-MPP^+ (2 nM) to either the apical or basolateral compartment. The pH of the medium on the basolateral side was 7.4, while that on the apical side was set to 6.0 (adjusted by adding HCl or NaOH, when necessary) to ensure optimal MATE1 transport activity. Cells were incubated at 37°C in 5% CO2 for 2 hours. At the end of the incubation period, 50 μl aliquots were sampled and the rest of the medium was immediately removed. […] Transport rates were recorded in pmol per mg protein in the cellular monolayer.

MATE2-K = target: T1, MATE2-K (Homo sapiens, UniProt Q86VL8); assay: Inhibition of net [14C]-metformin uptake in HEK-MATE2-K cells; format: cell-based; details: HEK 293 cells expressing MATE2-K (HEK-MATE2-K), probe [14C]-metformin (50 μM), 50 μM efavirenz (highest tested), 50 μM metformin, p = 0.119, read-out: Inhibition of MATE2-K-mediated metformin transport
T1 construct: expressed in transfected cells; host or cells: HEK293 (transient, HEK-MATE2-K)
T1 sequence (Q86VL8 1-566 isoform Q86VL8-3): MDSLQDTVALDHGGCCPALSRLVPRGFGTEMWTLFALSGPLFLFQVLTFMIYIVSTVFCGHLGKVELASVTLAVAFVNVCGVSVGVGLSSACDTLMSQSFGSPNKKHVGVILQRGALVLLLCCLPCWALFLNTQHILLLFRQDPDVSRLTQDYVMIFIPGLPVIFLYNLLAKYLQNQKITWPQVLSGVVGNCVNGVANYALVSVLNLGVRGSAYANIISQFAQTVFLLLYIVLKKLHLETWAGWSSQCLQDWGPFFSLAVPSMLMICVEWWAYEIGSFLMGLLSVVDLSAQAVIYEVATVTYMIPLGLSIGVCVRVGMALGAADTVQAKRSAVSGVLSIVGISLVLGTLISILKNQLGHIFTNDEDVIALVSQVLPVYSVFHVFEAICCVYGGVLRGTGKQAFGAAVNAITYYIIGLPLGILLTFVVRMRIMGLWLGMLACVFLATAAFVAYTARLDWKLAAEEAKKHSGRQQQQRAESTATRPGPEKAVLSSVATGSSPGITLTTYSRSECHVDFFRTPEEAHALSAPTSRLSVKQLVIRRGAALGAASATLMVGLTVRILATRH
Procedure: Experiments on the uptake of metformin in HEK 293-cells mediated by MATE2-K were performed as previously described. The number of cells per well was 7.0x10^5 for HEK-MATE2-K cells and 3.5x10^5 for HEK-Co cells to compensate for differences in protein concentration in the two lines. To determine the inhibitory effect of efavirenz, this drug was added to the [^14C]-metformin (50 μM) incubation medium at concentrations of 0.01 μM, 0.1 μM, 1 μM, 5 μM, 10 μM, 25 μM, or 50 μM. […] The net uptake was then calculated as described above.

OCT1 = target: T2, OCT1 (Homo sapiens, UniProt O15245); assay: Transcellular transport assay across MDCK-OCT1 monolayers; format: cell-based; details: 10 μM efavirenz, 2 h
T2 construct: expressed in transfected cells; host or cells: MDCKII (MDCK-OCT1)
T2 sequence (O15245 1-554): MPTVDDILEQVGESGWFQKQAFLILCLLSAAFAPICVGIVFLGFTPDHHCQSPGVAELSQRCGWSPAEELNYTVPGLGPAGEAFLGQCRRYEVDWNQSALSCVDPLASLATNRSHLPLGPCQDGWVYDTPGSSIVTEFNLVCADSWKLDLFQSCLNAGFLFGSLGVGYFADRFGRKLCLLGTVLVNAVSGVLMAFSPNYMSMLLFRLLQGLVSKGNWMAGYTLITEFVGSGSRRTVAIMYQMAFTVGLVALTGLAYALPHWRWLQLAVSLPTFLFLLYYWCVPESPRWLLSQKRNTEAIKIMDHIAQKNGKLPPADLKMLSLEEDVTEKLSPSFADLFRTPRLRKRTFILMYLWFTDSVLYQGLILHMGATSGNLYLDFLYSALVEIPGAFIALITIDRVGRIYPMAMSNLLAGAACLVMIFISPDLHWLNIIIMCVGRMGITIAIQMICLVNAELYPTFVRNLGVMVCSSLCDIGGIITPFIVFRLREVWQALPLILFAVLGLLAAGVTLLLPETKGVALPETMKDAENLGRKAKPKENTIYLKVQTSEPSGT
Procedure: Transport experiments employing polarized monolayers of MDCK-OCT1, MDCK-OCT2, or MDCK-MATE1 cell lines as well as doubly transfected MDCK-OCT1-MATE1 or MDCK-OCT2-MATE1 lines and the non-transfected parental control MDCK-Co cells grown on Transwell 3402 cell culture inserts (3.0 μm pore size, 24 mm diameter; Costar, Corning, NY) were performed as described previously. The number of cells per well was 0.5 x 10^6 in all experiments, and the cells were incubated for 3 days to confluence in standard cultivation medium MEM (Gibco) + 10% FBS. After 3 days’ cultivation, medium was removed from both sides and the cells of the monolayer were washed using pre-warmed PBS. […] The pH of the medium on the basolateral side was 7.4, while that on the apical side was set to 6.0 (adjusted by adding HCl or NaOH, when necessary) to ensure optimal MATE1 transport activity. Cells were incubated at 37°C in 5% CO2 for 2 hours. At the end of the incubation period, 50 μl aliquots were sampled and the rest of the medium was immediately removed. The cells were then washed twice with ice-cold PBS, the membranes supporting cellular monolayers were excised, and the cells were dissolved in a 0.02% SDS solution. The radioactivity of the collected samples and lysed monolayers was measured by liquid scintillation counting (Tri-Carb 2910 TR Perkin Elmer), and the protein concentration of the cell lysates was quantified using the BCA protein assay. Transport rates were recorded in pmol per mg protein in the cellular monolayer.

O=C1Nc2ccc(Cl)cc2[C@@](C#CC2CC2)(C(F)(F)F)O1 [efavirenz, Efavirenz]
Effect on basolateral-to-apical transport of [3H]-MPP+ (MDCK-Co cells): no inhibitory effect | inhibition at 3 min, 50 μM (MATE2-K): 48.1% | Effect on basolateral-to-apical transport of [3H]-MPP+ (OCT1; 2 nM MPP+, MDCK-OCT1): Inhibition | Effect on intracellular accumulation of [3H]-MPP+ (OCT1; 2 nM MPP+, MDCK-OCT1 monolayers): significantly reduced | Effect on intracellular accumulation of [3H]-lamivudine (OCT1; 10 nM lamivudine, MDCK-OCT1): significantly reduced | Effect on transcellular transport of [3H]-lamivudine (OCT1; 10 nM lamivudine, basal to apical, MDCK-OCT1): significantly inhibited
